How the values were obtained:
[1] = molecular target: T1, cyclooxygenase-2 (COX-2) (Homo sapiens, UniProt P35354); assay: Inhibition of COX-2 enzyme activity; format: biochemical; conditions: at a concentration of 10 μmol/L; read-out: inhibitory rate, COX-2
T1 sequence (P35354 18-604): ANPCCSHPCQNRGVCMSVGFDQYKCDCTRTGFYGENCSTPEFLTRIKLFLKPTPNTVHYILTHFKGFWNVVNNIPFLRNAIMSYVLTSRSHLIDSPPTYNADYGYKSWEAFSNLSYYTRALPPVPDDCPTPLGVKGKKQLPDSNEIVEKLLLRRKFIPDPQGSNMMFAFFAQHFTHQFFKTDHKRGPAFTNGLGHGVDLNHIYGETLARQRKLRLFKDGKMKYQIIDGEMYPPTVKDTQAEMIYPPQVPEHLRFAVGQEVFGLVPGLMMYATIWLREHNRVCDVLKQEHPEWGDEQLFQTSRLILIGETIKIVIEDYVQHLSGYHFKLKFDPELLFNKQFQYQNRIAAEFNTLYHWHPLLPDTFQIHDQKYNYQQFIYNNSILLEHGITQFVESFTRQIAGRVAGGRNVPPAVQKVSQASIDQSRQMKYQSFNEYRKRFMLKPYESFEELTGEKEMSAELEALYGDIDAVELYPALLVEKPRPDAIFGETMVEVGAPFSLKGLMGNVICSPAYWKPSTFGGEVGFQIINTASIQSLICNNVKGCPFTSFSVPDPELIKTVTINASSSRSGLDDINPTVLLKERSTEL

[2] = tested on: PGD2 production in mouse ear; assay: Inhibitory effect on PGD2 production in mouse ear caused by allergic reaction; format: in vivo; conditions: 10 mg/kg orally, 1 hour before inducing antigen-antibody reaction; BALB/c mice
Method: A test of PGD2 production in the mouse ear caused by allergic reaction was conducted according to the evaluation method of passive cutaneous anaphylaxis in the mouse ear by Inagaki et al. (Int.Arch.AllergyAppl. Immunol., 1988, 86 (3), 325-30) with some alteration. […]
One hour after the induction of antigen-antibody reaction, the mice were killed by cervical dislocation and the ears were cut off with scissors. […] The harvested pieces of ear tissue were immediately frozen in liquid nitrogen, and preserved at −80° C. until measurement of the quantity of PGD2.
The quantity of PGD2 was determined in the following manner. […]

SMILES: O=C(O)c1cc(-c2ccco2)nc2ccc3nn(-c4ccccc4)nc3c12 [Compound 133, 7-(furan-2-yl)-2-phenyl-2H-[1,2,3]triazolo[4,5-f]quinoline-9-carboxylic acid]
- inhibition at 10 µM [1]: ≤ 20%
- inhibition of PGD2 production in mouse ear caused by allergic reaction [2]: 88%

Source: US20120196854A1, “PHARMACEUTICAL COMPOSITION COMPRISING AROMATIC HETEROCYCLIC COMPOUND” (Kyowa Hakko Kirin Co., Ltd., priority 2009, published 2012)
